# Experiments:
# Format in all cases: in vivo, human
# [1] = system: subjects with Large Hemispheric Infarction (brain lesions of 82 cc to 300 cc); assay: Randomized double blind placebo controlled study in Large Hemispheric Infarction: clinical outcomes (mortality, mRS, Barthel Index, EQ-5D); set-up: median mRS / EQ-5D Median Difference: scale not given here; conditions: for Difference in 90 Day Score of mRS 0-4: Test Drug Group versus Placebo Group
# Protocol: (§1) In order to determine the efficacy of SUR1-TRPM4 channel inhibitors for reducing or treating neurological conditions associated with cell swelling and CNS or cerebral edema, a randomized double blind placebo controlled clinical study was conducted. […] Within the “per protocol” group, 77 patients who were confirmed centrally to have brain lesions from 82 cc to 300 cc. Forty one of subjects were administered the test drug and 36 subjects were administered the placebo. The administration of the test drug was as follows: a bolus of 0.13 mg of the SUR1-TRPM4 channel inhibitor was administered over approximately 2 minutes followed by a continuous infusion of 0.16 mg/hr for 6 hours, and then a continuous infusion of 0.11 mg/hr for 66 hours, for a total dosing period of 72 hours. The total daily dose of Study Drug on Day 1, Day 2 and Day 3 was 3.12 mg, 2.67 mg, and 2.67 mg, respectively.
# The incidence of mortality in the individuals was recorded at both 30 and 90 days following treatment. The Reduction in Mortality as a result of administration of the SUR1-TRPM4 channel inhibitor is shown in Table 2 below, and graphed in FIG. 1.
# Additional mortality data was collected as it related to drug and placebo treatment with and without a Decompressive Craniectomy (DC). Essentially, the incidence of mortality was recorded for study participants that passed away following a DC prior to the end of the study period. The incidence of mortality when a DC occurred compared to no DC is shown in Table 3 below, and graphed in FIG. 2.
# The subjects in this study were also tested using the modified Rankin Scale (mRS). One way to assess outcome in large strokes, such as those studied, is to determine the percentage of patients in each group who have a mRS of 0-4 at 90 days after stroke. The results of the 90 day mRS study is shown in Table 4 below, and graphed in FIG. 3.
# The Barthel Index is another functional outcome that can be used to assess outcome of stroke patients. The subjects of the study were also scored using the Barthel index both initially and again at about 90 days. The degree of improvement in the Barthel index scores are shown in Table 5 below and graphed in FIG. 4.
# Mortality can be multifactorial and may depend on factors such as preexisting comorbidities and risk factors. […] Specifically, cause of death was adjudicated by three adjudicators blinded to study drug group. Imaging and clinical data were used to determine, among other outcomes, cause of death. […] Consistent with our proposed mechanism of action, mortality attributable to edema was the driver behind reductions in overall mortality.
# The magnitude of difference between placebo and treatment arms on the mRS as an ordinal scale is frequently measured using the Mann-Whitney test and a common odds ratio (OR) may be derived using the proportional odds methodology to explore effect size. In accordance with this, a common OR of 1.2 represents a clinically meaningful difference. The OR for effect size in patients ≤70 in the per-protocol population was 2.49, which represents a substantial clinical effect.
# The Barthel Index (BI) is a measure of activities of daily living. It has been widely used and accepted in stroke trials and is one of the more prevalent scales used in acute stroke. In one example, a minimum clinically important change that is beyond measurement error is about 20 points on the 100-point scale, which was used as a benchmark in this study. The median delta or differences seen in the ≤70 per-protocol population at 90 days, 6 months, and 12 months between drug and placebo were 35, 27.5, and 45, respectively, all exceeding the accepted threshold. A common interpretation of the BI considers a score of ≤40 to be a clearly bad outcome, whereas a score of ≥60 is a clearly good outcome.
# The EuroQol-5D (EQ-5D) is a generic instrument used to assess quality of life in a variety of conditions, including stroke. […]
# MMP-9 = assay: Large Hemispheric Infarction study: MMP-9 values in blood samples; conditions: blood samples at 24 hours and at 72 hours, averaged
# Protocol: as §1
# Additionally, MMP-9 values based in blood samples were taken at 24 hours and at 72 hours for the study participants and then averaged. MMP-9 levels are known to rise after stroke and are believed to represent blood brain barrier dysfunction. The MMP-9 average values are shown in Table 8 below, and graphed in FIG. 7.
# [2] = Large Hemispheric Infarction study: blood glucose monitoring; conditions: one patient, receiving 10 wt % dextrose solution; infusion rate reduced by 30% and glucose stabilized
# Protocol: as §1
# a) During the Double Blind Placebo Controlled Study, there was a lab confirmed blood glucose level that dropped to 51 mg/dL which was recorded for one of the patients who was receiving a 10 wt % dextrose solution.
# [3] = system: subjects with TBI having lesional blood (contusion); assay: Randomized double blind placebo controlled study in Traumatic Brain Injury (MRI edema, GOSE)
# Protocol: The administration of the test drug was as follows: a bolus of 0.13 mg of the SUR1-TRPM4 channel inhibitor was administered over approximately 2 minutes followed by a continuous infusion of 0.16 mg/hr for 6 hours, and then a continuous infusion of 0.11 mg/hr for 66 hours, for a total dosing period of 72 hours. The total daily dose of Study Drug on Day 1, Day 2 and Day 3 was 3.12 mg, 2.67 mg, and 2.67 mg, respectively. All subjects were assessed by MRI scans at baseline and 72 hours.
# The 14 subjects (7 drug and 7 placebo) identified as having evidence of lesional blood (i.e., blood associated with a contusion) at baseline and having MRI scans at both baseline and 72 hours were assessed for edema using MIM software version 5.6. Blinded readers ascertained x, y, z measurements of the total apparent contusion using T2 images, unless missing, in which case, DTI images were used. Only contusions that could be reliably measured (measuring at least about 1 cc) were measured. Readers also ascertained the volume measurements of hemorrhages in a similar manner using SWI images. Linear measurements were captured in centimeters (cm) and all volumes in cubic centimeters (cc). Volumes were calculated using the ABC/2 standard. The volume of apparent edema was calculated as the difference between the overall apparent contusion volume and the volume of the hemorrhage. For analysis, if there were multiple lesions, the volumes of all lesions meeting the threshold were combined.
# [4] = Full per-protocol population, 6 Months
# [5] = Full per-protocol population, 12 Months
# [6] = PP ≤ 9 hr (drug in 9 hours or less), N 33 (14/19)
# [7] = patients ≤70, per-protocol population
# [8] = ≤70 per-protocol population, 6 Months
# [9] = ≤70 per-protocol population, 12 Months
# [10] = ≤70 per-protocol population, Day 90
compound,measurement,setting,value
COc1ccc(Cl)cc1C(=O)NCCc1ccc(S(=O)(=O)NC(=O)NC2CCCCC2)cc1 [glyburide],% Death 30 days,"[1]; 41 individuals, per protocol",14.6%
same,% Death 90 days,"[1]; 41 individuals, per protocol",17.1%
same,EQ-5D Median Difference,[1]; [4],0.34
same,Survival OR,[1]; [4],2.63
same,mRS OR,[1]; [4],1.88
same,EQ-5D Median Difference,[1]; [5],0.14
same,Survival OR,[1]; [5],2.54
same,mRS OR,[1]; [5],1.64
same,EQ-5D Median Difference,"[1]; Full per-protocol population, 90 Days, drug vs placebo",0.30
same,Survival OR,"[1]; Full per-protocol population, Day 90",2.74
same,mRS OR,"[1]; Full per-protocol population, Day 90, ordinal",1.91
same,Mortality OR,"[1]; PP population, N 77 (36/41), logistic regression",2.75
same,mRS 0-6 OR,"[1]; PP population, N 77 (36/41), ordinal logistic regression",1.91
same,Mortality OR,[1]; [6],2.96
same,mRS 0-6 OR,[1]; [6],2.31
same,Difference in 90 Day Score of mRS 0-4,[1],14.6%
same,Difference in 90 Day Score of mRS 0-4,[1]; listed as Test Drug,+14.6%
same,"""zero effect"" lesion size","[1]; by extrapolation, mRS shift OR of 1",about 100 cc
same,EQ-5D median difference between drug and placebo,"[1]; full and ≤70 per-protocol populations, all time points",greater than 0.12
same,Mortality with DC,[1]; number of deaths among 13 individuals receiving decompressive craniectomy,2
same,Mortality without DC,[1]; number of deaths among 28 individuals with no decompressive craniectomy,5
same,Mortality 90 days (includes 30 day values),"[1]; number of deaths among 41 individuals, per protocol",7
same,Mortality 30 days,"[1]; number of deaths among 41 individuals, per protocol, 30 days following treatment",6
same,effect size at the mRS 0-3 dichotomization,[1]; [7],14%
same,effect size at the mRS 0-4 dichotomization,[1]; [7],22%
same,Adjudicated mortality due to edema,"[1]; per-protocol group (1/41), placebo 22.22% (8/36), p=0.01",2.44%
same,90 Day Score of mRS 0-4,[1]; percentage of patients with mRS 0-4 at 90 days after stroke,61.4%
same,median mRS,"[1]; treated group, median of 5 in the placebo",4
same,EQ-5D Median Difference,[1]; [8],0.29
same,Survival OR,[1]; [8],3.47
same,mRS OR,[1]; [8],2.33
same,EQ-5D Median Difference,[1]; [9],0.30
same,Survival OR,[1]; [9],4.00
same,mRS OR,[1]; [9],2.24
same,EQ-5D Median Difference,"[1]; ≤70 per-protocol population, 90 Days",0.29
same,Survival OR,[1]; [10],3.88
same,mRS OR,[1]; [10],2.49
same,MMP-9 Average,MMP-9,193.18 ng/mL
same,lab confirmed blood glucose level,[2],51 mg/dL
same,evolution (growth) of edema from baseline to 72 hours,"[3]; 7 drug subjects with lesional blood, MRI volume, placebo 10.28-fold",2.14 fold
same,mean Glasgow Coma Scale Extended score (GOSE),"[3]; at 180 days, placebo 6.17",6
same,drug-related effects in non-lesioned subjects or areas of the brain without a lesion,[3]; in vivo,No drug-related effects were detected
